Data: patent US12209092B2, “Inhibitors of GLI1 as therapeutic agents” (NEW YORK UNIVERSITY, priority 2018, dated 2025)
Read-outs that look alike come from different tables or passages of the source.

System: Gli1-mediated transcription
Test: Gli1-mediated transcriptional luciferase reporter assay
Assay type: cell-based
Conditions: Shh-LIGHT2 cells, antagonist mode, purmorphamine 1.5 μM stimulation, 24 h
Method: Gli1-mediated transcriptional luciferase reporter assay was performed using Shh-LIGHT2 cells in order to evaluate the effects on activation and inhibition of Gli1-mediated transcription by the compounds of the disclosure. Brief assay procedure is provided below. […] Shh-LIGHT2 cells were harvested from about 80% confluent 10-cm dish using 0.25% Trypsin-EDTA solution. Medium was removed, and cells were washed with 5 mL DPBS and aspirated. Then, 1 mL 0.25% Trypsin-EDTA solution was added to a 10-cm dish. The dish was placed in the incubator for 1-3 minutes, or until cells have detached. 3 mL of cell growth medium (DMEM, 10% FBS, 1% PenStrep, 1% sodium pyruvate, and 1% GlutaMax) was added to the 10-cm dish, and the contents were transferred to a conical tube. […] The cell assay plate was removed from incubator after cells reached confluency. The culture medium was then manually removed from the cell plates, and the plates were centrifuged at 200 rpm for 30 seconds. […] After 30 min incubation of antagonist, cells were stimulated with agonist (purmorphamine, 5 μL, 1.5 μM final), then incubate for 24 h at 37° C./5% CO2. […] Luciferase assay: After incubation, the cell assay plate was allowed to acclimate to room temperature. Then, 20 μL of Duo-Glo® Luciferase Reagent (Promega) was added to each well of cell assay plate. The plate was briefly spun down, mixed, and incubated for 30 minutes at room temperature. The cell plate was read using luminometer for firefly luminescence activity. Then, 20 μL of Duo-Glo® Step&Glo® Reagent (Promega) was added to each well of cell assay plate. The plate was briefly spun down, mixed, and incubated for 30 minutes at room temperature. The cell plate was read using luminometer for Renilla luminescence activity. Ratio of firefly: Renilla luminescence was calculated for each well. The compound well ratio was normalized to the ratio from a control well.

[1] = firefly luminescence, read-out: Gli1 IC50 firefly
[2] = ratio of firefly:Renilla luminescence, read-out: Gli1 IC50 firefly:Renilla ratio

| IC50 [1] [nM] | IC50 [2] [nM] | Compound |
| --- | --- | --- |
| 1000 to 50000 | 1000 to 50000 | Fc1cccc(-c2nc3c([nH]2)CN(C2CCc4ccc(F)cc4C2)CC3)c1 (centres unmarked) [Example 51, 5-(7-fluoro-1,2,3,4-tetrahydronaphthalen-2-yl)-2-(3-fluorophenyl)-4,5,6,7-tetrahydro-3H-imidazo[4,5-c]pyridine] |
| < 100 | < 100 | Clc1ccc2c(c1)CC(N1CCc3nc(-c4ccc(C5CC5)cc4Cl)[nH]c3C1)CC2 (centres unmarked) [Example 37, 5-(7-chloro-1,2,3,4-tetrahydronaphthalen-2-yl)-2-(2-chloro-4-cyclopropylphenyl)-4,5,6,7-tetrahydro-3H-imidazo[4,5-c]pyridine] |
| 1000 to 50000 | 1000 to 50000 | Clc1cccc(-c2nc3c([nH]2)CN(C2CCc4ccc(Cl)cc4C2)CC3)c1 (centres unmarked) [Example 42, 5-(7-chloro-1,2,3,4-tetrahydronaphthalen-2-yl)-2-(3-chlorophenyl)-4,5,6,7-tetrahydro-3H-imidazo[4,5-c]pyridine] |
| 100 to 490 | 100 to 490 | Cn1c(-c2ccc(C3CC3)cc2Cl)nc2c1CCN(C1CCc3ccc(Cl)cc3C1)C2 (centres unmarked) [Example 164, 5-(7-chloro-1,2,3,4-tetrahydronaphthalen-2-yl)-2-(2-chloro-4-cyclopropylphenyl)-1-methyl-4,5,6,7-tetrahydro-1H-imidazo[4,5-c]pyridine] |

| Compound | IC50 [1] [nM] | IC50 [2] [nM] |
| --- | --- | --- |
| Cc1cn(-c2ccc3c(c2)CCC(N2CCc4nc(-c5ccccc5Cl)[nH]c4C2)C3)cn1 (centres unmarked) [Example 32, 2-(2-chlorophenyl)-5-(6-(4-methyl-1H-imidazol-1-yl)-1,2,3,4-tetrahydronaphthalen-2-yl)-4,5,6,7-tetrahydro-3H-imidazo[4,5-c]pyridine] | 1000 to 50000 | 1000 to 50000 |
| Cn1c(-c2ccccc2Cl)nc2c1CCC(N1CCc3cccc(Cl)c3C1)C2 (centres unmarked) [Example 188, 8-chloro-2-(2-(2-chlorophenyl)-1-methyl-4,5,6,7-tetrahydro-1H-benzo[d]imidazol-5-yl)-1,2,3,4-tetrahydroisoquinoline] | < 100 | < 100 |
| Fc1ccc2c(c1)CC(N1CCc3nc(-c4ccccc4F)[nH]c3C1)CC2 (centres unmarked) [Example 5, 5-(7-fluoro-1,2,3,4-tetrahydronaphthalen-2-yl)-2-(2-fluorophenyl)-4,5,6,7-tetrahydro-3H-imidazo[4,5-c]pyridine] | 1000 to 50000 | 1000 to 50000 |
